From US20080253967A1, “Halo-Stilbene Derivatives And Their Use For Binding And Imaging Of Amyloid Plaques” (priority 2007, published 2008)
Several values for one entry are separate records, joined by “and”; a condition that tells them apart may be missing. Identical values can stand only once. Entries after “also recorded” stand apart in the source; their conditions may differ. Like-named read-outs stand apart in the source and are kept apart here.

Experiments:
[1] = tested on: 46 CNS and Cardiovascular receptor binding sites; assay: Binding at CNS and Cardiovascular Receptors (panel of 46 sites); details: 1 μM; inhibition >50% considered significant
Procedure: A panel of 46 CNS and Cardiovascular receptor binding sites, including adenosine, adrenergic, benzodiazepine, bombesin, dopamine, GABA, melatonin, muscarinic, neurotensin, nicotininc acetylcholine, opiate, potassium channel, serotonin, sigma, and several transporter subtypes, was tested for binding of Compound 15. […] Inhibition of binding in excess of 50% by Compound 15 was considered potentially significant.

amyloid plaques [2] = target: T1, amyloid plaques (Homo sapiens, UniProt P05067); assay: Inhibition of ^125I-IMPY binding in AD brain homogenates; details: read-out: Binding Affinity (Ki vs. ^125I-IMPY)
Procedure: Thus, inhibition of ^125I-IMPY binding in human AD brain homogenates was taken as an assay for the potential of test compounds to bind to amyloid plaques.
Postmortem brain tissue was obtained and neuropathological diagnosis was confirmed in accordance with the NIA-Reagan Institute Consensus Group criteria. Homogenates were then prepared from dissected gray matter, pooled in phosphate buffered saline and aliquoted into 1-ml portions (100 mg wet tissue/ml), which could be stored at −70° C. for 3-6 months without loss of binding signal.
(§1) For the binding assays brain homogenates were incubated with ^125I-IMPY (0.04-0.06 nM diluted in phosphate buffered saline (PBS)) and test compound (10^−5-10^−10 M diluted in PBS containing 0.1% bovine serum albumin (BSA)). […] The bound and free radioactivity was separated by vacuum filtration followed by 2×3 ml washes of PBS. Filters containing the bound ^125I ligand were assayed in a gamma counter.
as §1, with “in PBS)” for “in phosphate buffered saline (PBS))”, “0.1% BSA).” for “0.1% bovine serum albumin (BSA)).”, “bound […],” for “bound ^125I”

[3] = Organ distribution in normal mice after i.v. injection; type: in vivo; details: for Biodistribution Brain (% dose/g in brain) / % total counted / % total recovered / Biodistribution Brain: normal male mice; for Brain penetration and clearance: normal mice
Procedure: While under isoflurane anesthesia, 0.15 ml of a 0.9% saline solution containing ^123I-15 (5-10 μCi) was injected directly into the tail vein of ICR mice (22-25 g, male). The mice (n=3 for each time point) were sacrificed, the organs of interest were removed, weighed, and assayed with an automatic gamma counter. The percentage dose per organ was calculated by a comparison of the tissue counts to suitably diluted aliquots of the injected material. Total activities of blood were calculated under the assumption that they were 7% of the total body weight. The % dose/g of samples was calculated by comparing the sample counts with the count of the diluted initial dose. […] Similar results were obtained in female mice.
While under isoflurane anesthesia, 0.15 ml of a 0.9% saline solution containing ^123I-1b-3 (5-10 μCi) was injected directly into the tail vein of ICR mice (22-25 g, male and female) The mice (n=3 for each time point per sex) were sacrificed, the organs of interest were removed, weighed, and assayed with an automatic gamma counter. The percentage dose per organ was calculated by a comparison of the tissue counts to suitably diluted aliquots of the injected material. Total activities of blood were calculated under the assumption that they were 7% of the total body weight. The % dose/g of samples was calculated by comparing the sample counts with the count of the diluted initial dose.

amyloid plaques [4] = target: T1, amyloid plaques; details: AD brain homogenates; other amyloid plaque ligands; read-out: Binding Affinity (Ki vs. ^125I-IMPY), published values; cited from earlier work
Aβ plaques = assay: Film autoradiography of AD brain sections; type: binding, human; details: tracer concentrations, post-mortem AD brain sections
Procedure: (§2) Brain sections from a patient with AD were frozen in powdered dry ice and cut into 20 μm thick sections. The sections were incubated with ^123I-15 (200,000-250,000 cpm/200 μl) for 1 hour at room temperature. The sections were then dipped in saturated Li2CO3 in 40% EtOH (2×2 min. washes) and washed with 40% EtOH (1×2 min. wash) followed by rinsing with water for 30s. After drying, the ^123I-labeled sections were exposed to Kodak MR film overnight.
as §2, with “Brains” for “Brain”, “patients” for “a patient”, “^123I-1b-3” for “^123I-15”, “30 s.” for “30s.”

physchem = details: pH 7.4
Procedure: (§3) Partition coefficients were measured by mixing ^123I-15 with 3 g each of 1-octanol and buffer (0.1 M phosphate, pH 7.4) in a test tube. The test tube was vortexed for 3 min at room temperature, followed by centrifugation for 5 min. Two weighed samples (0.5 g each) from the 1-octanol and the buffer layer were counted in a well counter. The partition coefficient was determined by calculating the ratio of cpm/g of 1-octanol to that of the buffer. Samples from the 1-octanol layer were repartitioned until consistent partitions of coefficient values were obtained from the third partition. The measurement was done in triplicate and repeated three times.
(§4) The test tube was vortexed for 3 min at room temperature, followed by centrifugation for 5 min. Two weighed samples (0.5 g each) from the 1-octanol and the buffer layer were counted in a well counter. The partition coefficient was determined by calculating the ratio of cpm/g of 1-octanol to that of the buffer. Samples from the 1-octanol layer were repartitioned until consistent partitions of coefficient values were obtained from the third partition. The measurement was done in triplicate and repeated three times.

fibrillar Aβ aggregates = fibrillar Aβ aggregates (Homo sapiens, UniProt P05067); details: read-out: Inhibition constants (Ki) for binding to fibrillar Aβ aggregates; cited from earlier work
AD cortical homogenates = details: cited from earlier work
[5] = Estimate of human dosimetry extrapolated from mouse data; details: proposed 5 mCi human dose, extrapolation from mouse data
[6] = Partition coefficient 1-octanol/buffer; details: 1-octanol / 0.1 M phosphate buffer pH 7.4
Procedure: as §3, §4

T1 sequence (P05067 672-711 limits assumed): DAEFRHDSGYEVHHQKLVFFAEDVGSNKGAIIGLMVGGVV
Chain of fibrillar Aβ aggregates (P05067 672-711 limits assumed): as above

CNc1ccc(/C=C/c2ccc(OCCOCCOCCF)cc2)cc1 [Compound 3, (E)-4-(2-(6-(2-(2-(2-fluoroethoxy)ethoxy)ethoxy)phenyl)-vinyl)-N-methylbenzamine, reference compound]
Selectivity (binding to CNS/CV receptors) [1]: No high affinity binding to any CNS receptors
Ki (amyloid plaques [2]): 6.7 ± 0.3 nM
Biodistribution Brain (% dose/g in brain) ([3]; 2 min): 4.8 ± 0.2 % dose/g
Biodistribution Brain (% dose/g in brain) ([3]; 60 min): 1.5 ± 0.2 % dose/g

CC(=C(C#N)C#N)c1ccc2cc(N(C)CC[18F])ccc2c1 [FDDNP, 2-(1-{6-[(2-[^18F]fluoroethyl)(methyl)amino]-2-naphthyl}ethylidene)malononitrile]
Ki (amyloid plaques [4]): 239 nM

CNc1ccc(/C=C/c2cc([123I])cc(OCCO)c2)cc1 [^123I-15]
Labeling of Aβ plaques in AD brain sections (Aβ plaques): specifically labeled Aβ plaques
Estimated human effective dose (ED): approximately 1.1 rem
% total counted / % total recovered ([3]; 2 min): 86.65 ± 1.34%
Biodistribution Brain ([3]; 2 min): 1.49 ± 0.12 % dose/organ
Biodistribution Brain (% dose/g in brain) ([3]; 2 min): 3.4 % dose/g and 3.40 ± 0.31 % dose/g
% total counted / % total recovered ([3]; 60 min): 87.53 ± 4.57%
Biodistribution Brain ([3]; 60 min): 0.21 ± 0.01 % dose/organ
Biodistribution Brain (% dose/g in brain) ([3]; 60 min): 0.43 % dose/g and 0.43 ± 0.05 % dose/g
% total counted / % total recovered ([3]; 120 min): 79.41 ± 5.56%
% total counted / % total recovered ([3]; 180 min): 79.46 ± 5.15%
Brain penetration and clearance [3]: readily penetrates and is rapidly cleared from the brain
logD (physchem): 2.4
logP (physchem): 2.39

O=C(O)c1cc(/N=N/c2ccc(-c3ccc(/N=N/c4ccc(O)c(C(=O)O)c4)cc3)cc2)ccc1O [CG, chrysamine-G]
Ki (fibrillar Aβ aggregates): 370 nM

CNc1ccc(/C=C/c2ccc(OCCOCCOCCF)c(I)c2)cc1 [Compound 1b-3, (E)-4-(4-(2-(2-(2-fluoroethoxy)ethoxy)ethoxy)-3-iodostyryl)-N-methylbenzenamine]
Selectivity (binding to CNS/CV receptors) [1]: No high affinity binding to any CNS receptors
Ki (amyloid plaques [2]): 9 ± 1.8 nM
Biodistribution Brain (% dose/g in brain) ([3]; 2 min): 2.0 ± 0.4 % dose/g
Biodistribution Brain (% dose/g in brain) ([3]; 60 min): 0.51 ± 0.09 % dose/g

CNc1ccc(/C=C/c2ccc(O)cc2)cc1 [[^3H]SB-13]
Kd (AD cortical homogenates): 2.4 ± 0.2 nM

CNc1ccc(/C=C/c2ccc(OCCOCCOCCF)c([123I])c2)cc1 [^123I-1b-3]
Estimated exposure of lower large intestine [5]: approximately 4.04 rem
Estimated exposure of upper large intestine [5]: ~3.55 rem
Estimated human effective dose (ED) [5]: 1.1 rem
Labeling of Aβ plaques in AD brain sections (Aβ plaques): specifically labeled Aβ plaques; also recorded: colocalize with plaque staining by Congo Red
Partition coefficient [6]: 432
logP [6]: 2.63
% total counted / % total recovered ([3]; 2 min): 82.20 ± 6.38%
Biodistribution Brain ([3]; 2 min): 1.01 ± 0.16 % dose/organ
Biodistribution Brain (% dose/g in brain) ([3]; 2 min): 2.0 % dose/g and 2.05 ± 0.41 % dose/g
% total counted / % total recovered ([3]; 60 min): 83.26 ± 6.99%
Biodistribution Brain ([3]; 60 min): 0.26 ± 0.05 % dose/organ
Biodistribution Brain (% dose/g in brain) ([3]; 60 min): 0.51 % dose/g and 0.51 ± 0.09 % dose/g
% total counted / % total recovered ([3]; 120 min): 83.56 ± 6.29%
% total counted / % total recovered ([3]; 180 min): 79.15 ± 6.31%
Brain penetration and clearance [3]: readily penetrates and is rapidly cleared from the brain
